From the supplement of paper PMC11451515

Test system: P12-Ichikawa
Assay: cell viability relative to DMSO control; higher = less cytotoxic
Conditions: 48 h
Outline: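 Viability, reported as a per-plate percentage of DMSO wells with cell-free wells as background, came from CellTiter-Glo One luminescence. Reading took place after 48 h at 37°C. Before that, NOMO1 or SEM (500 cells/well) or P12-Ichikawa (1000 cells/well) leukemia cells, adapted for at least four passages in each medium, were seeded in 1536-well plates (5 μl) and pin-dosed with library compounds in DMSO, 47 μM to 0.79 nM over 11 threefold points.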

[1] = HPLM + 10% dialyzed FBS, 0.000781 µM
[2] = HPLM + 10% dialyzed FBS, 0.00234 µM
[3] = HPLM + 10% dialyzed FBS, 0.00702 µM
[4] = HPLM + 10% dialyzed FBS, 0.0211 µM
[5] = HPLM + 10% dialyzed FBS, 0.0632 µM
[6] = HPLM + 10% dialyzed FBS, 0.19 µM
[7] = HPLM + 10% dialyzed FBS, 0.569 µM
[8] = HPLM + 10% dialyzed FBS, 1.71 µM
[9] = HPLM + 10% dialyzed FBS, 5.12 µM
[10] = HPLM + 10% dialyzed FBS, 15.4 µM
[11] = HPLM + 10% dialyzed FBS, 46.1 µM
[12] = RPMI 5 mM glucose + 10% FBS, 0.000781 µM
[13] = RPMI 5 mM glucose + 10% FBS, 0.00234 µM
[14] = RPMI 5 mM glucose + 10% FBS, 0.00702 µM
[15] = RPMI 5 mM glucose + 10% FBS, 0.0211 µM
[16] = RPMI 5 mM glucose + 10% FBS, 0.0632 µM
[17] = RPMI 5 mM glucose + 10% FBS, 0.19 µM
[18] = RPMI 5 mM glucose + 10% FBS, 0.569 µM
[19] = RPMI 5 mM glucose + 10% FBS, 1.71 µM
[20] = RPMI 5 mM glucose + 10% FBS, 5.12 µM
[21] = RPMI 5 mM glucose + 10% FBS, 15.4 µM
[22] = RPMI 5 mM glucose + 10% FBS, 46.1 µM
[23] = RPMI 5 mM glucose + 10% dialyzed FBS, 0.000781 µM
[24] = RPMI 5 mM glucose + 10% dialyzed FBS, 0.00234 µM
[25] = RPMI 5 mM glucose + 10% dialyzed FBS, 0.00702 µM
[26] = RPMI 5 mM glucose + 10% dialyzed FBS, 0.0211 µM
[27] = RPMI 5 mM glucose + 10% dialyzed FBS, 0.0632 µM
[28] = RPMI 5 mM glucose + 10% dialyzed FBS, 0.19 µM
[29] = RPMI 5 mM glucose + 10% dialyzed FBS, 0.569 µM
[30] = RPMI 5 mM glucose + 10% dialyzed FBS, 1.71 µM
[31] = RPMI 5 mM glucose + 10% dialyzed FBS, 5.12 µM
[32] = RPMI 5 mM glucose + 10% dialyzed FBS, 15.4 µM
[33] = RPMI 5 mM glucose + 10% dialyzed FBS, 46.1 µM

Row | SMILES | cell viability [1] | cell viability [2] | cell viability [3] | cell viability [4] | cell viability [5] | cell viability [6] | cell viability [7] | cell viability [8] | cell viability [9] | cell viability [10] | cell viability [11] | cell viability [12] | cell viability [13] | cell viability [14] | cell viability [15] | cell viability [16] | cell viability [17] | cell viability [18] | cell viability [19] | cell viability [20] | cell viability [21] | cell viability [22] | cell viability [23] | cell viability [24] | cell viability [25] | cell viability [26] | cell viability [27] | cell viability [28] | cell viability [29] | cell viability [30] | cell viability [31] | cell viability [32] | cell viability [33]
1 | ClC1=CC(=CC=C1)N2CCN(CCCN3\N=C4\C=C/C=C\N4C3=O)CC2 | 118% | 120% | 120% | 134% | 128% | 132% | 134% | 142% | 140% | 134% | 139% |  |  |  |  |  |  |  |  |  |  |  |  |  |  |  |  |  |  |  |  |  | 
2 | CCOC(=O)[C@H](CCc1ccccc1)N[C@@H](C)C(=O)N1CCC[C@H]1C(=O)O | 120% | 108% | 116% | 111% | 102% | 117% | 112% | 109% | 108% | 97.8% | 106% | 118% | 117% | 107% | 111% | 113% | 113% | 108% | 111% | 108% | 98.1% | 101% | 114% | 111% | 106% | 110% | 113% | 116% | 105% | 121% | 104% | 108% | 102%
3 | CCOc1cc(N)c(Cl)cc1C(=O)NCC1CN(Cc2ccc(F)cc2)CCO1 (configuration not stated) | 104% | 110% | 106% | 110% | 110% | 111% | 109% | 100% | 119% | 112% | 109% | 107% | 116% | 106% | 112% | 109% | 115% | 115% | 115% | 115% | 119% | 112% | 99.3% | 106% | 106% | 102% | 108% | 117% | 107% | 112% | 106% | 105% | 104%
4 | Cc1ncc(OC[C@@]2(c3cccc(F)c3)C[C@H]2C(=O)Nc2ccc(F)cn2)c(C)n1 | 104% | 101% | 104% | 104% | 105% | 111% | 114% | 102% | 102% | 103% | 13.4% | 107% | 107% | 108% | 112% | 110% | 106% | 106% | 107% | 107% | 106% | 97.3% | 111% | 108% | 119% | 113% | 108% | 121% | 116% | 115% | 117% | 106% | 96.2%
5 | CN(C)C(=O)c1ccc([S+](=O)([O-])c2ccc(NC(=O)[C@@](C)(O)C(F)(F)F)c(Cl)c2)cc1 | 105% | 111% | 107% | 113% | 116% | 117% | 114% | 117% | 100% | 100% | 43.3% | 98% | 98.1% | 107% | 108% | 115% | 110% | 97.9% | 101% | 93.9% | 80.9% | 62.6% | 106% | 110% | 102% | 118% | 114% | 117% | 118% | 106% | 103% | 72.5% | 63.5%
6 | CCN(CC)CCCCNc1nc2cc(Cl)c(Cl)cc2nc1-c1ccc(-c2cccs2)s1 | 94.2% | 114% | 75.6% | 114% | 109% | 134% | 118% | 121% | 115% | 123% | 59.9% | 99.9% | 119% | 64.8% | 123% | 120% | 125% | 134% | 125% | 123% | 114% | 5.94% | 107% | 116% | 78% | 118% | 120% | 129% | 123% | 127% | 121% | 108% | 6.07%
7 | Cc1cccc(C)c1OCC(=O)N[C@@H](Cc1ccccc1)[C@@H](O)C[C@H](Cc1ccccc1)NC(=O)[C@H](C(C)C)N1CCCNC1=O | 99.5% | 96.1% | 98.2% | 102% | 95.7% | 97% | 91.9% | 89.1% | 90.2% | 86.2% | 61.8% | 98.5% | 101% | 93.9% | 96% | 102% | 99.6% | 97.4% | 91.7% | 91.3% | 87.1% | 56.8% | 91.6% | 87.8% | 94.1% | 88.7% | 91.2% | 90.1% | 93.6% | 79.2% | 85.6% | 83.9% | 54.8%
8 | C[C@@H]1COCCN1C\2=C\C(=O)N\3CC[C@H](N(CC4=CN=CC(=C4)Cl)C3=N2)C(F)(F)F | 94% | 101% | 98.9% | 94.3% | 97.5% | 103% | 101% | 104% | 85% | 32.7% | 22.5% | 91.4% | 94.1% | 95.7% | 89.2% | 98.3% | 107% | 97.2% | 108% | 76.5% | 40% | 17.5% | 99.4% | 102% | 106% | 98.8% | 107% | 99.6% | 114% | 99.8% | 86% | 30.8% | 17.6%
